How the values were obtained:
M4 muscarinic receptor = biological target: T1, M4 muscarinic receptor (Homo sapiens, UniProt P08173); experiment: Functional mobilization of intracellular calcium (FLIPR, Fluo-3), M4-CHO cells; type: cell-based; conditions: compound nos. 1-454; for Emax: read-out: M4 Efficacy; for M4 Activity: M4-CHO cells, calcium mobilization
T1 construct: expressed in transfected cells; host or cells: CHO cells (M4-CHO, under puromycin, zeocin and blasticidin selection)
T1 sequence (P08173 1-479): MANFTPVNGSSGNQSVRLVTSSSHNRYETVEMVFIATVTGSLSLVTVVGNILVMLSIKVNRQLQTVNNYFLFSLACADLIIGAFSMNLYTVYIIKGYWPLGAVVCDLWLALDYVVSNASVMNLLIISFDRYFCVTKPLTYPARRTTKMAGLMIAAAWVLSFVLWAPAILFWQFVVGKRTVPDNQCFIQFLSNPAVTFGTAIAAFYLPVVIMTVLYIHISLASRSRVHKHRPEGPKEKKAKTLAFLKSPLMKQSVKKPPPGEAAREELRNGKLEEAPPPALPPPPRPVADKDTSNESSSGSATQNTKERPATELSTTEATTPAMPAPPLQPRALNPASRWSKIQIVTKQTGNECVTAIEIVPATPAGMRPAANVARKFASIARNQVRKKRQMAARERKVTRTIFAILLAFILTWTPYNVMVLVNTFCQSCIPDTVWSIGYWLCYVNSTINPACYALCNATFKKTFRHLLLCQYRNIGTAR
Protocol: (§1) CHO cells expressing muscarinic receptors (M1 to M5) are grown as monolayers in tissue culture flasks at 37° C. in a humidified atmosphere containing 5% CO2 and passaged every 3-5 days. The growth media is Dulbecco's modified eagles medium (DMEM, Gibco Cat#12430-054), containing 25 mM Hepes and supplemented with Fetal Bovine Serum (Hyclone, cat# SH30071.03), 0.1 mM of MEM non-essential amino acids (GIBCO, Cat# 11140-050), 1 mM MEM Sodium Pyruvate (GIBCO Cat# 11360-070) and 100 units/ml of Penicillin G and 100 μg/ml of Streptomycin (GIBCO Cat# 15140-122). The recombinant muscarinic receptor cell lines are grown under antibiotic pressure with media containing 25 μm/ml zeocin and 500 μg/ml G418 (M1-CHO), 4 μg/ml puromycin, 50 μg/ml zeocin and 2.5 μm/ml blasticidin (M2 and M4-CHO) or 50 μg/ml zeocin and 4 μg/ml puromycin (M3 and M5-CHO).
(§2) Cells are harvested at 80-90% confluence using Versene (GIBCO Cat# 15040-066), collected by centrifugation and seeded 18-24 hrs prior to running the calcium assay at a density of 5,000-10,000 cells/well in […], clear-bottomed 384-well plates (BD Biocoat, poly-D-lysine, Cat#356663). The day of the experiment, the cells are washed with a plate washer (Bioteck Instruments, ELX 405) using bath1 buffer (140-mM NaCl, 4.5-mM KCL, 2-mM CaCl2, 1-mM MgCl2, 10-mM Hepes-Na, 10-mM Glucose, pH 7.4, with NaOH) containing 1 mM Probenecid. Next, the calcium dye Fluo-3 (25 μl/well of Fluo-3 μM at 4 μM, Molecular Probes F-1241, in Bath 1 buffer containing 1 mM Probenecid) is added to the 25 μl of Bath 1 remaining in each well after the plate wash and the dye is loaded at 37° C. in the tissue culture incubator for 60-90 min. The fluorescent dye is removed using the plate washer with Bath 1 containing 1 mM Probenecid, leaving 25 μl/well of this solution after the wash. Alternatively, cells can be loaded with the calcium indicator from Molecular Devices (Calcium 3 Assay Reagents, Cat # R7181) adding 5 μl of a 5× solution dye in Bath 1 containing 1 mM Probenecid (10 ml per dye flask cat# R7182 to generate a solution 20×) to 20 μl of the same buffer. After loading for 60 min, the experiment can be run without having to remove the dye.
(§3) Compounds are prepared at a 2× fold concentration in a 96-well plate (round bottom, Costar Corning cat# 3656), by reconstituting the pre-spotted compounds in bath 1 containing 1 mM probenecid. The final concentration DMSO is 0.5%, and the amount of DMSO is normalized across the assay plate. To determine an agonist action of the compounds on muscarinic receptors, the reconstituted compounds are added (25 μl compound/well) to the cell assay plate (containing 25 μl/well) using the multi-channel robotic system of the FLIPR 3 Instrument (Molecular Devices, Sunnyvale, Calif.). To determine a functional inhibitory action of the compounds on muscarinic receptors, the reconstituted compounds are added (25 μl compound/well) to the assay plate and pre-incubated for 15 min prior to adding 25 μl of Carbachol at 3× the EC80 for each muscarinic subtype. Alternatively, the compounds can be co-applied simultaneously with the agonist. In both assay modes, the fluorescence is recorded for 60 sec (excitation wavelength is […] and emission wavelength 540 nm) using the FLIPR 3 instrument.
(§4) The potency, efficacy and selectivity of the muscarinic compounds were evaluated by screening the compound activity across the whole family (M1 to M5 cells). Compounds were also screened for activity on other proteins such as other GPCRs and ion channels to determine selectivity on M4 receptors.

M1 muscarinic receptor = biological target: T2, M1 muscarinic receptor (Homo sapiens, UniProt P11229); experiment: Functional mobilization of intracellular calcium (FLIPR, Fluo-3), M1-CHO cells; type: cell-based; conditions: compound nos. 1-454; for Emax: read-out: M1 Efficacy; for M1 Activity: M1-CHO cells, calcium mobilization
T2 construct: expressed in transfected cells; host or cells: CHO cells (M1-CHO, under zeocin and G418 selection)
T2 sequence (P11229 1-460): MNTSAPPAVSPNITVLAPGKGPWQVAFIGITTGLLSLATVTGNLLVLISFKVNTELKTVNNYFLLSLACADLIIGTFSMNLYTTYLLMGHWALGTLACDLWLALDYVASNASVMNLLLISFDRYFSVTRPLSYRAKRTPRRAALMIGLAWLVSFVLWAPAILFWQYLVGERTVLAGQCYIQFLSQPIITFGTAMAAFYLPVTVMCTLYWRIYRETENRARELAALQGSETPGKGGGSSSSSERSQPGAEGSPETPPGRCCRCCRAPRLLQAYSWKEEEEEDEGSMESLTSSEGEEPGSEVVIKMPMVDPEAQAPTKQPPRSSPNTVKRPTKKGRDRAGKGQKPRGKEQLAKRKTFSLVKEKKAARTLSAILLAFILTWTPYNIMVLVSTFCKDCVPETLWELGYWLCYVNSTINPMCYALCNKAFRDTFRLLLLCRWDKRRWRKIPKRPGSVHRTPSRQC
Protocol: as §1, §2, §3, §4

[1] = 100% efficacy is the maximum response obtained with the Carbachol control

Structure (SMILES)	Emax (M4 muscarinic receptor; [1])	M4 Activity (M4 muscarinic receptor)	Emax (M1 muscarinic receptor; [1])	M1 Activity (M1 muscarinic receptor)	M4 Efficacy (M4 muscarinic receptor; [1])	M1 Efficacy (M1 muscarinic receptor; [1])
CCOC(=O)N1C2CCC1CC(N1CCC3(CC1)CN(S(=O)(=O)c1ccc(F)cc1)c1ccc(F)cc13)C2 (stereo not drawn) [compound 40]	> 70%	++ (activity was measured to be between 0.1 μM and 4.0 μM)	65 to 85%	+++ (activity was measured to be less than or equal to 0.7 μM)		
CCOC(=O)N1CCC(N2CCC3(CC2)CN(C(=O)c2ccc(OC)cc2)c2ccc(F)cc23)CC1 [compound 41]	> 70%	+++ (activity was measured to be less than or equal to 0.1 μM)	> 85%	+++ (activity was measured to be less than or equal to 0.7 μM)		
CCOC(=O)N1C2CCC1CC(N1CCC3(CC1)COc1ccc(F)cc13)C2 (stereo not drawn) [compound 42]	> 70%	++ (activity was measured to be between 0.1 μM and 4.0 μM)	> 85%	+++ (activity was measured to be less than or equal to 0.7 μM)		
O=C(O[C@@H]1CCOC1)N1C2CCC1CC(N1CCC3(CCc4ccccc43)CC1)C2 (stereo partly drawn) [compound 43]	> 70%	+ (activity was measured to be greater than or equal to 4.0 μM)	> 85%	+++ (activity was measured to be less than or equal to 0.7 μM)		
COC(=O)N1C2CCC1CC(N1CCC3(CC1)CN(C(=O)c1cc(C)n(C)n1)c1ccc(F)cc13)C2 (stereo not drawn) [compound 44]	> 70%	++ (activity was measured to be between 0.1 μM and 4.0 μM)	65 to 85%	+++ (activity was measured to be less than or equal to 0.7 μM)		
CCOC(=O)N1CCC(N2CCC3(CC2)CN(C(=O)c2cccc(OC)c2)c2ccc(F)cc23)CC1 [compound 45]	55 to 70%	+++ (activity was measured to be less than or equal to 0.1 μM)	> 85%	+++ (activity was measured to be less than or equal to 0.7 μM)		
CCOC(=O)N1CCC(CN2CCC3(CC2)CN(C(C)=O)c2ccc(C)cc23)CC1 [compound 46]	55 to 70%	+++ (activity was measured to be less than or equal to 0.1 μM)	> 85%	+++ (activity was measured to be less than or equal to 0.7 μM)		
CC(=O)N1CC2(CCN(C3CC4CCC(C3)N4C(=O)O[C@H]3CCOC3)CC2)c2cc(F)ccc21 (stereo partly drawn) [compound 47]	55 to 70%	++ (activity was measured to be between 0.1 μM and 4.0 μM)	65 to 85%	+++ (activity was measured to be less than or equal to 0.7 μM)		
CN(C)C(=O)N1CC2(CCN(C3CCN(C(=O)OCCF)CC3)CC2)c2cc(F)ccc21 [compound 48]	55 to 70%	++ (activity was measured to be between 0.1 μM and 4.0 μM)	> 85%	+++ (activity was measured to be less than or equal to 0.7 μM)		
CCOC(=O)N1CCC(N2CCC3(CC2)CN(C(=O)O[C@H]2CCOC2)c2ccc(F)cc23)CC1 [compound 49]		+++ (activity was measured to be less than or equal to 0.1 μM)		+++ (activity was measured to be less than or equal to 0.7 μM)	++ (efficacy was calculated to be between 70% and 55%)	+++ (efficacy was calculated to be 85% or more)
CCOC(=O)N1C2CCC1CC(N1CCC3(CC1)CN(C(=O)c1cc(C)n(C)n1)c1ccc(F)cc13)C2 (stereo not drawn) [compound 50]	> 70%	++ (activity was measured to be between 0.1 μM and 4.0 μM)	> 85%	+++ (activity was measured to be less than or equal to 0.7 μM)		
Cc1ccc2c(c1)C1(CCN(C3CC4CCC3C4)CC1)CN2C(=O)C1CC1 (stereo not drawn) [compound 51]	55 to 70%	++ (activity was measured to be between 0.1 μM and 4.0 μM)	65 to 85%	+++ (activity was measured to be less than or equal to 0.7 μM)		
CC(=O)N1CC2(CCN(C3CCCCC3C)CC2)c2cc(F)ccc21 (stereo not drawn) [compound 52]	55 to 70%	+++ (activity was measured to be less than or equal to 0.1 μM)	> 85%	+++ (activity was measured to be less than or equal to 0.7 μM)		
CCOC(=O)N1CCC(N2CCC3(CC2)CN(C(=O)c2ccccc2C)c2ccc(F)cc23)CC1 [compound 53]	55 to 70%	++ (activity was measured to be between 0.1 μM and 4.0 μM)	< 65%	++ (activity was measured to be between 0.7 μM and 3.0 μM)		
CC(C)OC(=O)N1CCC(N2CCC3(CC2)CN(C(=O)N(C)C)c2ccc(F)cc23)CC1 [compound 54]	55 to 70%	++ (activity was measured to be between 0.1 μM and 4.0 μM)	> 85%	+++ (activity was measured to be less than or equal to 0.7 μM)		
CC(C)C(=O)N[C@H]1CC2(CCN(C[C@H]3C[C@H]4CC[C@H]3C4)CC2)c2ccccc21 [compound 55]	55 to 70%	+++ (activity was measured to be less than or equal to 0.1 μM)	> 85%	+++ (activity was measured to be less than or equal to 0.7 μM)		
CCOC(=O)N1C2CCC1CC(N1CCC3(CC1)CC(=O)Nc1ccccc13)C2 (stereo not drawn) [compound 56]	55 to 70%	+++ (activity was measured to be less than or equal to 0.1 μM)	65 to 85%	+++ (activity was measured to be less than or equal to 0.7 μM)		
O=C(C1CC1)N1CC2(CCN(C3CC4CCC(C3)N4C(=O)O[C@H]3CCOC3)CC2)c2cc(F)ccc21 (stereo partly drawn) [compound 57]	55 to 70%	+++ (activity was measured to be less than or equal to 0.1 μM)	65 to 85%	+++ (activity was measured to be less than or equal to 0.7 μM)		

— patent publication US7858635B2 (priority 2005, dated 2010)
